# From patent publication US4196205A, “3-Acetoxymethyl-7-(iminoacetamido)-cephalosporanic acid derivatives” (priority 1976, dated 1980)
# Like-named read-outs stand apart in the source and are kept apart here.
# Tests used:
# [1] = tested on: Salmonella typhimurium 5210; assay: Experimental infection with Salmonella typhimurium in mice; format: in vivo
# Protocol: Groups of 10 mice with an average weight of 20.5 g were intraperitoneally injected with 0.5 ml of a 24 hour old culture in oxoid bouillon of Salmonella typhimurium 5210 diluted 1/75 with distilled water. The product of Example 7 was administered subcutaneously one hour and 4, 8, 24 and 32 hours after the infection and the results, determined as before, are reported in the following Table.
# Acute toxicity in mice = format: in vivo, female mice of Swiss CD1 Specific Pathogen Free Strain; conditions: for Total Mortality: 4 days
# Protocol: The acute toxicity of the product of Example 7 was determined on groups of 8 to 10 female mice of Swiss CD1 Specific Pathogen Free Strain (stock CH.River-France), with an average weight of 19 to 21 g, for each dose of the compound.
# The animals had injection in the caudal vein in a variable volume at a rate of 1 ml/mn of the product of Example 7 dissolved at a concentration of 100 mg/ml in sterile apyrogen distilled water.
# [2] = tested on: Streptococcus faecalis 99 F 74; assay: MIC, dilution in liquid medium; format: cell-based; conditions: for MIC: Enterococcus faecalis
# Protocol: (§1) The method used was a dilution of a liquid medium where a series of tubes received the same quantity of a sterile nutritive media and increasing doses of the test compounds were placed therein. Then each tube was seeded with a bacterial strain and was incubated for 24 to 48 hours at 37° C. in an oven. The increasing inhibition was determined by transillumination to determine the minimum inhibiting concentration (MIC in […]) and the results are reported in the following Tables.
# [3] = tested on: Bacillus subtilis ATCC 6 633; assay: MIC, dilution in liquid medium; format: cell-based; conditions: for MIC: Bacillus subtilis
# Protocol: as §1
# [4] = tested on: Streptococcus faecalis 5 432; assay: MIC, dilution in liquid medium; format: cell-based
# Protocol: as §1
# [5] = tested on: Streptococcus pyogenes A 561; assay: MIC, dilution in liquid medium; format: cell-based; conditions: for MIC: Streptococcus pyogenes, read-out: M.I.C.
# Protocol: as §1
# [6] = tested on: Klebsiella pneumoniae Exp. 52 145; assay: MIC, dilution in liquid medium; format: cell-based; conditions: for MIC: Klebsiella pneumoniae, read-out: M.I.C.
# Protocol: as §1
# [7] = tested on: Escherichia Coli Resistant Gentamicine, Tobramycine R 55 123 D; assay: MIC, dilution in liquid medium; format: cell-based; conditions: for MIC: Escherichia coli, read-out: M.I.C.
# Protocol: as §1
# [8] = tested on: Proteus vulgaris (indol+) A 232; assay: MIC, dilution in liquid medium; format: cell-based; conditions: Proteus vulgaris, read-out: M.I.C.
# Protocol: as §1
# [9] = tested on: Staphylococcus aureus UC 1 128 Pen-Resistant; assay: MIC, dilution in liquid medium; format: cell-based; conditions: for MIC: Staphylococcus aureus
# Protocol: as §1
# [10] = tested on: Escherichia Coli Resistant Tetracycline ATCC 11 303 = UC 1261; assay: MIC, dilution in liquid medium; format: cell-based; conditions: for MIC: Escherichia coli, read-out: M.I.C.
# Protocol: as §1
# [11] = tested on: Proteus mirabilis (indol-) A 235; assay: MIC, dilution in liquid medium; format: cell-based; conditions: for MIC: Proteus mirabilis, read-out: M.I.C.
# Protocol: as §1
# [12] = tested on: Pseudomonas 3 935 Exp. SG; assay: MIC, dilution in liquid medium; format: cell-based
# Protocol: as §1
# [13] = tested on: Escherichia Coli Exp. TO26 B6; assay: MIC, dilution in liquid medium; format: cell-based; conditions: for MIC: Escherichia coli
# Protocol: as §1
# [14] = tested on: Staphylococcus aureus ATCC 5 638 Pen-Sensible = UC 1061; assay: MIC, dilution in liquid medium; format: cell-based
# Protocol: as §1
# [15] = tested on: Escherichia Coli Sensible Tetracycline ATCC 9 637 = 1020; assay: MIC, dilution in liquid medium; format: cell-based; conditions: for MIC: Escherichia coli, read-out: M.I.C.
# Protocol: as §1
# [16] = tested on: Salmonella typhimurium 420; assay: MIC, dilution in liquid medium; format: cell-based; conditions: for MIC: Salmonella enterica, TYPHIMURIUM, read-out: M.I.C.
# Protocol: as §1
# [17] = tested on: Klebsiella pneumoniae 2 536 Resistant Gentamicine; assay: MIC, dilution in liquid medium; format: cell-based; conditions: for MIC: Klebsiella pneumoniae
# Protocol: as §1
# Providencia Du 48 = assay: MIC, dilution in liquid medium; format: cell-based; conditions: for MIC: Providencia
# Protocol: as §1
# [18] = tested on: Staphylococcus aureus exp. n° 54 146; assay: MIC, dilution in liquid medium; format: cell-based; conditions: for MIC: Staphylococcus aureus
# Protocol: as §1
# [19] = tested on: Serratia Resistant Gentamicine 2 532; assay: MIC, dilution in liquid medium; format: cell-based
# Protocol: as §1
# Enterobacter cloacae 681 = assay: MIC, dilution in liquid medium; format: cell-based
# Protocol: as §1
compound,measurement,setting,value
"CO/N=C(\C(=O)N[C@@H]1C(=O)N2C(C(=O)O)=C(COC(C)=O)CS[C@H]12)c1csc(N)n1 [Example 7, sodium 3-acetoxymethyl-7-[2-(2-amino-4-thiazolyl)-2-methoxyiminoacetamido]-ceph-3-eme-4-carboxylate]",MORTALITY AFTER 6J,"[1]; 0,1 mg subcutaneously",3
same,MORTALITY AFTER 7J,"[1]; 0,1 mg subcutaneously",3
same,MORTALITY AFTER 8J,"[1]; 0,1 mg subcutaneously",1
same,Mice alive on the 10th day,"[1]; 0,1 mg subcutaneously",3/10
same,MORTALITY AFTER 5J,"[1]; 0,5 mg subcutaneously",1
same,MORTALITY AFTER 6J,"[1]; 0,5 mg subcutaneously",1
same,MORTALITY AFTER 7J,"[1]; 0,5 mg subcutaneously",1
same,Mice alive on the 10th day,"[1]; 0,5 mg subcutaneously",7/10
same,MORTALITY AFTER 7J,"[1]; 0,25 mg subcutaneously",2
same,MORTALITY AFTER 8J,"[1]; 0,25 mg subcutaneously",1
same,MORTALITY AFTER 9J,"[1]; 0,25 mg subcutaneously",2
same,Mice alive on the 10th day,"[1]; 0,25 mg subcutaneously",5/10
same,MORTALITY AFTER 8J,[1]; 1 mg subcutaneously,1
same,Mice alive on the 10th day,[1]; 1 mg subcutaneously,9/10
same,Mice alive on the 10th day,[1]; 2 mg subcutaneously,10/10
same,lethal dose,"Acute toxicity in mice; caudal vein, mice",above 2000 mg/kg
same,Total Mortality,"Acute toxicity in mice; dose 500 mg, caudal vein",0/10
same,Total Mortality,"Acute toxicity in mice; dose 1000 mg, caudal vein",0/10
same,Total Mortality,"Acute toxicity in mice; dose 2000 mg, caudal vein",0/8
same,Symptomatology,Acute toxicity in mice; following the injections and during the observation period,No symptoms of intoxication were noted
same,M.I.C.,[2]; 24 H,3 µg/mL
same,MIC,"[2]; 99F74, 48 h, read-out: M.I.C.",10 µg/mL
same,M.I.C.,[3]; 24 H,1 µg/mL
same,M.I.C.,[3]; 48 H,2 µg/mL
same,M.I.C.,[4]; 24 H,1 µg/mL
same,M.I.C.,[4]; 48 H,3 µg/mL
same,M.I.C.,[5]; 24 H,"0,01 μg/ml"
same,M.I.C.,[5]; 48 H,"0,01 μg/ml"
same,M.I.C.,[6]; 24 H,"≤ 0,02 μg/ml"
same,M.I.C.,[6]; 48 H,≤ 0.02 µg/mL
same,M.I.C.,[7]; 24 H,"0,1 μg/ml"
same,M.I.C.,[7]; 48 H,"0,1 μg/ml"
same,MIC,[8]; 24 h,0.2 µg/mL
same,MIC,[8]; 48 h,0.6 µg/mL
same,M.I.C.,[9]; 24 H,2 µg/mL
same,M.I.C.,[9]; 48 H,3 µg/mL
same,M.I.C.,[10]; 24 H,"≤ 0,02 μg/ml"
same,M.I.C.,[10]; 48 H,"≤ 0,02 μg/ml"
same,M.I.C.,[11]; 24 H,"≤ 0,02 μg/ml"
same,M.I.C.,[11]; 48 H,"≤ 0,02 μg/ml"
same,M.I.C.,[12]; 24 H,10 µg/mL
same,M.I.C.,[12]; 48 H,20 µg/mL
same,M.I.C.,[13]; 24 H,"0,05 μg/ml"
same,M.I.C.,[13]; 48 H,"0,05 μg/ml"
same,MIC,[14]; 48 h,2 µg/mL
same,M.I.C.,[15]; 24 H,"0,1 μg/ml"
same,MIC,"[15]; ATCC9, 48 h, 48 H",0.1 µg/mL
same,M.I.C.,[16]; 24 H,"0,1 μg/ml"
same,M.I.C.,[16]; 48 H,20 µg/mL
same,M.I.C.,[17]; 24 H,"0,2 μg/ml"
same,M.I.C.,[17]; 48 H,"0,2 μg/ml"
same,M.I.C.,Providencia Du 48; 24 H,1 µg/mL
same,M.I.C.,Providencia Du 48; 48 H,2 µg/mL
same,M.I.C.,[18]; 48 H,2 µg/mL
same,MIC,[18]; 24 h,2 µg/mL
"C=CO/N=C(\C(=O)NC1C(=O)N2C(C(=O)O)=C(COC(C)=O)CSC12)c1csc(N)n1 (stereo not drawn) [Product B, syn isomer of 3-acetoxymethyl-7-[2-(2-amino-4-thiazolyl)-2-vinyloxyimino-acetamido]-ceph-3-eme-4-carboxylic acid]",MIC,"[2]; 99F74, 24 h, 24 H",5 µg/mL
same,MIC,"[2]; 99F74, 48 h, read-out: M.I.C.",10 µg/mL
same,MIC,"[3]; ATCC6, 24 h, 24 H",2 µg/mL
same,MIC,"[3]; ATCC6, 48 h, 48 H",5 µg/mL
same,MIC,"[4]; Enterococcus faecalis, 5432, 24 h, 24 H",3 µg/mL
same,MIC,"[4]; Enterococcus faecalis, 5432, 48 h, 48 H",5 µg/mL
same,MIC,[19]; 24 h,1 µg/mL
same,MIC,[19]; 48 h,2 µg/mL
same,MIC,"[5]; A561, 24 h, 24 H",≤ 0.02 µg/mL
same,MIC,"[5]; A561, 48 h, 48 H",≤ 0.02 µg/mL
same,MIC,"[6]; EXP.52145, 24 h, 24 H",≤ 0.02 µg/mL
same,MIC,"[6]; EXP.52145, 48 h, 48 H",≤ 0.02 µg/mL
same,MIC,[7]; 24 h,0.5 µg/mL
same,MIC,[7]; 48 h,0.5 µg/mL
same,MIC,"Enterobacter cloacae 681; Enterobacter cloacae, 681, 24 h",3 µg/mL
same,MIC,"Enterobacter cloacae 681; Enterobacter cloacae, 681, 48 h",5 µg/mL
same,MIC,"[9]; UC1, 24 h, 24 H",1 µg/mL
same,MIC,"[9]; UC1, 48 h, 48 H",1 µg/mL
same,MIC,[10]; 24 h,0.05 µg/mL
same,MIC,[10]; 48 h,0.95 µg/mL
same,MIC,[11]; 24 h,≤ 0.02 µg/mL
same,MIC,[11]; 48 h,≤ 0.02 µg/mL
same,MIC,[13]; 24 h,0.2 µg/mL
same,MIC,[13]; 48 h,0.2 µg/mL
same,MIC,[14]; 24 h,1 µg/mL
same,MIC,[14]; 48 h,1 µg/mL
same,MIC,"[15]; ATCC9, 24 h, 24 H",0.5 µg/mL
same,MIC,"[15]; ATCC9, 48 h, 48 H",0.5 µg/mL
same,MIC,[16]; 24 h,0.5 µg/mL
same,MIC,[16]; 48 h,0.5 µg/mL
same,MIC,[17]; 24 h,1 µg/mL
same,MIC,[17]; 48 h,2 µg/mL
same,MIC,"Providencia Du 48; DU48, 24 h, 24 H",2 µg/mL
same,MIC,"Providencia Du 48; DU48, 48 h, 48 H",2 µg/mL
same,MIC,[18]; 24 h,1 µg/mL
same,MIC,[18]; 48 h,2 µg/mL
